Earlier results on one compound are cited in article PMC12428582, “2-Styrylquinolines with Push-Pull Architectures as Sensors for β-Amyloid Aggregation with Theranostic Properties” (International Journal of Molecular Sciences, 2025).

In the data set the test system is Aβ42. Also on record: method as in PMID 24900645. The note with it: ThT-based fluorometric assay; cited from earlier work.

`Cc1ccc2nc(/C=C/c3ccc(N)cc3)ccc2c1` [A]: the “Inhibition of Aβ42 aggregation” value is “moderate fibrillization inhibitor and amyloid binder”.
